Results on three compounds are retold here after paper PMC9359557, “Discovery of a novel natural product inhibitor of Clostridioides difficile with potent activity in vitro and in vivo” (PLoS ONE, 2022).

As a reminder, the MIC is the lowest concentration found to suppress growth. The low end stands for a more susceptible organism, the high end for a less susceptible organism. A word on the MIC50: it is the lowest concentration that inhibits either 50% of growth or 50% of the strains tested, depending on the study. A high value points to weaker potency. Broadly, the MIC90 is the lowest concentration that inhibits either 90% of growth or 90% of the strains tested, depending on the study. Read a low MIC90 as higher susceptibility. By MBC is commonly meant the lowest tested concentration that kills the bacteria rather than only halting them. Low values mean greater bactericidal potency, high ones weaker bactericidal potency.

The subject of data set [1] is C. difficile. Briefly: In vitro susceptibility assay (MIC). The following applies: Clostridioides difficile.
For data set [2], the system named is C. difficile. Briefly: Minimum bactericidal concentration (MBC) assay. The following applies: for MBC: Clostridioides difficile.
Another data set relates to Caco-2 cells. Briefly: Cytotoxicity assay (MTS). It counts as cell-based, human. The following applies: concentration up to 16 μg/ml, 24 hrs. The procedure: A cytotoxicity assay against Caco-2 cells was performed to assess the potential toxic effect of the natural products as described before. Caco-2 cells cultured in DMEM media supplemented with 10% FBS, 1% NEAA, and 1% penicillin/streptomycin were grown at 37°C in presence of 5% CO2. Following trypsinization, cells were seeded to 96-well plates and allowed to grow till cells in each well attained 100% confluence. Hit natural products were added to the cells at a starting concentration of 16 μg/ml whereas control wells received DMSO at the same concentration. The plates were incubated for 24 hrs. after which MTS reagent was added and absorbance was recorded at 490 nm using a SpectraMax i3Multi-Mode Microplate Reader. Caco-2 cell survival post treatment with natural products were plotted as percentage viability of natural product-treated cells in comparison to the DMSO-treated cells using GraphPad prism v. 8.0.
Fig 4 Cytotoxicity assay of natural products against Caco-2 cell line. The percentage of viable Caco-2 cells was measured as the ratio of average absorbance of each sample relative to the negative control (DMSO). The absorbance values represent the mean of three samples of each natural product compound with error bars representing standard deviation values for the absorbance.

Converted amounts (≈) assume the structure as drawn.

Regarding `CCc1c(Cl)c(O)c(Cl)c(O)c1C(=O)O[C@H]1[C@H](O)[C@H](OC)[C@H](OC/C2=C\C=C\C[C@H](O)/C(C)=C/[C@H](CC)[C@@H](O[C@@H]3OC(C)(C)[C@@H](OC(=O)C(C)C)[C@H](O)[C@@H]3O)/C(C)=C/C(C)=C/C[C@@H]([C@@H](C)O)OC2=O)O[C@@H]1C` [Fidaxomicin], the minimal inhibitory concentration (MIC) in the data set on C. difficile [1] was 0.125 µg/mL (≈ 0.118 µM); against C. difficile [1] (ATCC43255, […]), 0.06 µg/mL (≈ 0.0567 µM); in the data set with C. difficile [1] (BAA1870, […]), 0.06 µg/mL (≈ 0.0567 µM). The compound also yielded an MIC50 against C. difficile [1] of 0.06 µg/mL (≈ 0.0567 µM). This compound displayed an MIC90 with C. difficile [1] of 0.125 µg/mL (≈ 0.118 µM). For the same compound, the MBC against C. difficile [2] (ATCC43255, […]) amounted to 0.06 µg/mL (≈ 0.0567 µM); against C. difficile [2] (BAA1870, […]), 0.125 µg/mL (≈ 0.118 µM).
Consider `CO[C@H]1[C@H](O)C[C@@H](O[C@@H]2C[C@H](Oc3cc4cc5c(c(O)c4c(O)c3C)C(=O)[C@@H](O[C@H]3C[C@H](O[C@H]4C[C@H](O[C@H]6C[C@@](C)(O)[C@@H](OC(=O)C(C)C)[C@H](C)O6)[C@H](O)[C@@H](C)O4)[C@H](O)[C@@H](C)O3)[C@H]([C@H](OC)C(=O)[C@@H](O)[C@@H](C)O)C5)O[C@H](C)[C@H]2OC(C)=O)O[C@@H]1C` [NP-003875], for which the “toxicity to Caco-2 cells” value in the data set with Caco-2 cells was “did not exhibit toxicity”; with Caco-2 cells ([…]) it was “non-toxic”. In addition, the minimal inhibitory concentration (MIC) with C. difficile [1] turned out to be 0.015 µg/mL (≈ 0.0124 µM); with C. difficile [1] (ATCC43255), 0.03 µg/mL (≈ 0.0248 µM); against C. difficile [1] (BAA1870), 0.03 µg/mL (≈ 0.0248 µM). The compound also returned an MIC50 in the data set with C. difficile [1] of 0.03 µg/mL (≈ 0.0248 µM). Further, the MIC90 in the data set with C. difficile [1] is 0.03 µg/mL (≈ 0.0248 µM). Besides, the MBC stood at 0.03 µg/mL (≈ 0.0248 µM) in the data set on C. difficile [2] (ATCC43255, […]) and 0.03 µg/mL (≈ 0.0248 µM) with C. difficile [2] (BAA1870, […]). Moreover, in the data set on C. difficile [2] (in words), the “bactericidal activity against C. difficile” value is reported as “bactericidal activity”.
For `CN[C@H](CC(C)C)C(=O)N[C@H]1C(=O)N[C@@H](CC(N)=O)C(=O)N[C@H]2C(=O)N[C@H]3C(=O)N[C@H](C(=O)N[C@H](C(=O)O)c4cc(O)cc(O)c4-c4cc3ccc4O)[C@H](O)c3ccc(c(Cl)c3)Oc3cc2cc(c3O[C@@H]2O[C@H](CO)[C@@H](O)[C@H](O)[C@H]2O[C@H]2C[C@](C)(N)[C@H](O)[C@H](C)O2)Oc2ccc(cc2Cl)[C@H]1O` [Vancomycin], in the data set with C. difficile [1], the MIC50 amounted to 0.5 µg/mL (≈ 0.345 µM). The MIC90 in the data set on C. difficile [1] amounted to 1 µg/mL (≈ 0.69 µM). The MIC against C. difficile [1] (ATCC43255, […]) was 1 µg/mL (≈ 0.69 µM); against C. difficile [1] (BAA1870, […]), 1 µg/mL (≈ 0.69 µM). The MBC against C. difficile [2] (ATCC43255, […]) stood at 1 µg/mL (≈ 0.69 µM); against C. difficile [2] (BAA1870, […]), 4 µg/mL (≈ 2.76 µM).
